Target: T1, Oxytocin receptor (Rattus norvegicus, UniProt P70536)
T1 sequence (P70536 whole entry): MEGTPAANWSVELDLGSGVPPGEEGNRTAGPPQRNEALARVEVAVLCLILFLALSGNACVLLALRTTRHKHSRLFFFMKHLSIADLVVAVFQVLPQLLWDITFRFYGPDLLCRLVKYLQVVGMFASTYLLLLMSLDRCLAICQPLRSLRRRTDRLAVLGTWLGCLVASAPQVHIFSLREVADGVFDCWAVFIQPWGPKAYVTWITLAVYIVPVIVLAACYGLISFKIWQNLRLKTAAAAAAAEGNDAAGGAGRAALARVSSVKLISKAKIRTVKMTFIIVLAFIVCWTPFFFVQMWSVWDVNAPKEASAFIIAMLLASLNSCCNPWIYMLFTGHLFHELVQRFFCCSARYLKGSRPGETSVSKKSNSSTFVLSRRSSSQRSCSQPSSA
Assay: Biological activity against Oxytocin receptor in rat

SMILES: CC[C@H](C)[C@H](NC(=O)[C@@H](Cc1c[nH]c2ccccc12)NC(=O)CC1(S)CCCCC1)C(=O)N[C@H](CC(N)=O)C(=O)N[C@@H](CC(N)=O)C(=O)N[C@@H](CS)C(=O)N1CCC[C@H]1C(=O)N[C@@H](CCCN=C(N)N)C(=O)NCC(N)=O
- pA2: 5.41

Source: ChEMBL document CHEMBL1128468, “Amino acid side chain descriptors for quantitative structure-activity relationship studies of peptide analogues” (J Med Chem, 1995)
